According to patent publication US10350315B2, “Quinoline-3-carboxamide compounds and their use in diagnosis” (Westfaelische Wihelms-Universitaet Muenster, priority 2014, dated 2019):

Legend:
[1] = Biodistribution of Cy5.5-CES271 in healthy Balb/c mice (fluorescence intensity in organs); format: in vivo
Experimental: FIG. 16: Biodistribution of Cy5.5-CES271 in healthy Balb/c mice. The tracer was intravenously injected at a dose of 2 nmol per mouse.
The biodistribution of Cy5.5-CES271 and [^99mTc]FEB054 injected to healthy Balb/c mice was analysed by the measurement of fluorescence intensity in various organs. […] The tracer was injected at a dose of 2 nmol per mouse. […] This kinetics, that is different to previously published antibody based tracer anti-S100A9-Cy5.5^7 kinetics favors Cy5.5-CES271 for imaging of organs neighboring the liver like the lung or the heart.

S100A9 [2] = target: T1, S100A9 (Mus musculus, UniProt P31725); experiment: Irritant contact dermatitis (ICD) mouse model, fluorescence reflectance imaging (FRI); format: in vivo, mice; settings: FRI 3 h after tracer application
T1 construct: from tissue; host or cells: living mice (inflamed ear, joints) and explanted mouse heart, aorta and lungs
T1 sequence (P31725 2-113 limits assumed): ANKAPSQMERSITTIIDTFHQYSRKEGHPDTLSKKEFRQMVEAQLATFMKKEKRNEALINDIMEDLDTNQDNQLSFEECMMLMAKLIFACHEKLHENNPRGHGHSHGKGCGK
From the text: FIG. 6: Accumulation of Cy5.5-CES271 in a mouse model of contact dermatitis (ICD). (A) FRI images showing accumulation of a quinoline-3-carboxamide compound covalently linked to a label (Cy5.5-CES271) in a mouse model of contact dermatitis of the left ear in WT (left) and S100A9 deficient (right) mice. (B) FRI images and S100A9 staining showing accumulation of a quinoline-3-carboxamide compound covalently linked to a label (Cy5.5-CES271) in a mouse model of contact dermatitis.
FIG. 21: FRI images of Cy5.5-CES271 and Cy7-CES271 in a mouse model of contact dermatitis (ICD). (A) Representative Fluorescence Reflectance images of a Cy7-CES271 and Cy5.5-aS100A9 coinjected animal.
In vivo fluorescence reflectance imaging was performed with an IVIS Spectrum small-animal imaging system (Xenogen). Images were acquired and analyzed using Living Image 4.X software (Xenogen). […] Fluorescence emission was measured by Fluorescence emission radiance per incident excitation irradiance (p/sec/cm2/sr/μW/cm2).
ICD was induced by the application of 20 μl 1% croton oil in olive oil-acetone (1:4) to the ventral surface of the left ear of mice for 24 h (n=5 per group), whereas the right ear served as a control. […] In the Cy7 channel the quantum yield is much lower compared to the Cy5.5 channel, which means that the recorded signal with Cy5.5-CES271 is higher than compared to […] (right image; FIG. 21). […]

S100A9 [3] = target: T1, S100A9; experiment: Myocardial infarction mouse model, FRI of the explanted heart; format: in vivo, C57BI/6 mouse; settings: one day post LAD occlusion, two hours after i.v. injection of 2 nmol
Experimental: FIG. 7: Accumulation of Cy5.5-CES271 in a mouse model of myocardial infarction. One day post occlusion of the LAD in a C57BI/6 mouse: FRI of the explanted heart (longitudinal mid-infarction cut) two hours after i.v. injection of 2 nmol Cy5.5-CES271. […] Furthermore, absence of S100A9 in the remote myocardium (RM) is accompanied by the lack of Cy5.5-CES271.
Myocardial infarction was induced by opening the chest of a mouse and transient ligation of the left coronary artery for 60 minutes. The ischemic event triggers acute inflammatory response to the tissue injury in the first hours/days followed by a remodeling process (involving less intense inflammatory processes) after about one week. FRI was performed one day after the surgical intervention to assess the intense acute inflammatory response and the images in FIG. 7 were acquired two hours after injection of 2 nmol Cy5.5-CES-271. […] FRI of the explanted heart (longitudinal mid-infarction cut) two hours after i.v. injection of 2 nmol Cy5.5-CES271 is shown.

[4] = 2 nmol per mouse i.v., 1 and 3 h after injection
[5] = between 1 h and 3 h post injection, 2 nmol i.v.

## 3-ethyl-2((1E,3E,5E)-5-(3-(1-(5-ethyl-4-hydroxy-1-methyl-2-oxo-1,2-dihydroquinolin-3-yl)-1,15-dioxo-2-phenyl-5,8,11-trioxa-2,14-diazanonadecan-19-yl)-1,1-dimethyl-6,8-disulfonato-1H-benzo[e]indol-2(3H)-ylidene)penta-1,3-dien-1-yl)-1,1-dimethyl-1H-benzo[e]indol-3-ium-6,8-disulfonate [Cy5.5-CES271]
[1]; [4]
  Route of elimination: mainly driven by renal excretion
  Tissue availability: good tissue availability
[1]; 1 h compared with 3 h post injection, 2 nmol i.v.
  Tracer concentration in heart, spleen, muscle, brain: at the same level
[1]; 3 h vs 1 h post injection, 2 nmol i.v.
  Tracer concentration in kidney, liver and lung: higher tracer concentrations
[1]; [5]
  Change of tracer concentration in the blood: decrease
  Change of tracer concentration in the urine: increases significantly
[1]; mouse, in vivo
  Kinetics compared to antibody based tracers: much faster kinetics
S100A9 [2]; S100A9−/− deficient mice
  Accumulation in the inflamed ear: not observed
S100A9 [2]; WT mice, croton oil on left ear
  Accumulation in the inflamed ear: significant accumulation
S100A9 [3]
  Accumulation in the myocardial infarction (MI): accumulates in the myocardial infarction
  Accumulation in the remote myocardium (RM): lack of Cy5.5-CES271 accumulation
